Assay [1] relates to Bacillus subtilis ATCC 6623 (Bs). The experiment in a line: MIC, microdilution (CLSI). In kind it is cell-based. Particulars: ATCC6623. The method, boiled down:
(§1)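 Broth microdilution uses cation-adjusted Mueller Hinton broth with two-fold compound series beginning at 32 µg/mL. Plates incubate 18–20 h at 35 ℃, then wells are scored visually for growth. Values derive from three separate experiments on different days, each at least in duplicate with fresh cultures.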

The test system of assay [2] is E. faecalis ATCC 29212 (Ef12). The experiment in a line: MIC, microdilution (CLSI). In kind it is cell-based. Particulars: Enterococcus faecalis, ATCC29212. An outline of the steps:
as §1
(In general: Dilution methods test growth across graded concentrations, often in twofold steps.)

The test system of assay [3] is E. faecalis ATCC 51299 (Ef99). The experiment in a line: MIC, microdilution (CLSI). In kind it is cell-based. Particulars: Enterococcus faecalis, ATCC 51299 / VRE. The method, boiled down: as §1
The test system of assay [4] is E. faecium ATCC 700221 (Ef21). Description: MIC, microdilution (CLSI). In kind it is cell-based. The conditions noted are these: Enterococcus faecium, ATCC 700221 / VRE. An outline of the steps: as §1
In assay [5] the test system is S. aureus ATCC 25923 (Sa23). The experiment in a line: MIC, microdilution (CLSI). The format is cell-based. The conditions noted are these: Staphylococcus aureus, ATCC25923. An outline of the steps:
as §1

Assay [6] relates to S. aureus ATCC 33591 (Sa91). Description: MIC, microdilution (CLSI). The conditions noted are these: Staphylococcus aureus, ATCC33591. The format is cell-based. The method, boiled down: as §1
Assay [7] deals with S. aureus ATCC 33592 (Sa92). The experiment in a line: MIC, microdilution (CLSI). The format is cell-based. The conditions noted are these: Staphylococcus aureus, ATCC33592. The method, boiled down: as §1
Assay [8] has as its system S. aureus ATCC 700699 (Sa99). Description: MIC, microdilution (CLSI). The format is cell-based. Particulars: Staphylococcus aureus, ATCC700699. An outline of the steps: as §1
Assay [9] concerns S. aureus BAA-2312 (Sa12). Description: MIC, microdilution (CLSI). The format is cell-based. The conditions noted are these: Staphylococcus aureus, BAA2312. An outline of the steps: as §1
Assay [10] has as its system S. epidermidis ATCC 700296 (Se). The experiment in a line: MIC, microdilution (CLSI). In kind it is cell-based. The conditions noted are these: Staphylococcus epidermidis, ATCC700296. The method, boiled down:
as §1

The test system of assay [11] is S. aureus strains. Description: MIC against S. aureus strains. In kind it is cell-based, Staphylococcus aureus. As for the experimental part: (§2) Compounds were dissolved in dimethyl sulfoxide (DMSO) to achieve a starting concentration of 32 µg/mL as described by us previously. Compounds were further diluted two-fold across the 96-well honeycomb plate columns in cation adjusted Mueller Hinton broth (CAMHB), and bacterial culture was added. Plates were incubated for 18–20 h at 35 ℃ before determining the minimum concentrations at which wells had no visible turbidity to the naked eye. The MIC values were determined from at least a duplicate result obtained from three independent experiments using fresh bacterial cultures on different days.

Assay [12] relates to enterococci strains. The experiment in a line: MIC against enterococci strains. The format is cell-based. Particulars: tested enterococci strains. The protocol: as §2
In assay [13] the test system is S. aureus biofilms (Sa23). The experiment in a line: Biofilm eradication (MBEC), Calgary Biofilm Device. In kind it is cell-based, Staphylococcus aureus. The protocol:
(§3) Minimum biofilm eradication concentration (MBEC) was determined using a Calgary device using the protocol reported elsewhere with some modifications. The Calgary device is a 96-well plate with a lid containing pegs to establish biofilms. Bacteria from an overnight plate culture were suspended to a 0.5 McFarland turbidity, then diluted 1:100 in a CAMHB containing 1% glucose which was inoculated in the 96 wells (150 μL in each well) and incubated at 35 °C for 24 h to establish biofilm on the pegs. The lid was then removed, washed with PBS in a fresh 96 well plate, then transferred to another 96-well plate containing 2-fold serial dilutions of the test compounds dissolved in PBS (150 μL total volume in each well). This plate was called the “challenge plate”. The challenge plate was incubated for an additional 24 h, and the lid was transferred to the next 96-well plate containing fresh CAMHB media with 1% glucose (180 μL) and further incubated for 24 h. […] All the compounds were tested in a minimum of three independent experiments.

For assay [14], the system named is E. faecalis biofilms (Efs12). Description: Biofilm eradication (MBEC), Calgary Biofilm Device. In kind it is cell-based. As for the experimental part: as §3
Assay [15] concerns MRSA (S. aureus ATCC 700699). Description: Time Kill Assay. The format is cell-based, Staphylococcus aureus. The conditions noted are these: 4× MIC, positive controls.
Assay [16] relates to S. aureus ATCC 700699 persisters. Description: Persister viability assay. The format is cell-based, Staphylococcus aureus. Particulars: 32× MIC, 4 h, S. aureus ATCC 700699 persisters. As for the experimental part: The persister assay was performed following the methodology described previously. Briefly, for persister viability assays, S. aureus ATCC 700699 strain (MRSA) was grown to stationary phase in CAMHB medium by shaking at 200 rpm in a shaking incubator for 24 h at 35 °C. […] After incubation, 400 µL aliquot was washed, serially diluted in PBS, and plated in blood agar plate for viable colony count.

Where [17] appears, read: Bs, Bacillus subtilis ATCC 6623, n = 3, read-out: MIC.
The mark [18] stands for this setting: Ef12, antibiotic susceptible E. faecalis ATCC 29212, n = 3, read-out: MIC.
Setting [19] is: Ef99, vancomycin-resistant (VRE) E. faecalis ATCC 51299, n = 3, read-out: MIC.
The mark [20] stands for this setting: Ef21, vancomycin-resistant (VRE) E. faecium ATCC 700221, n = 3, read-out: MIC.
Where [21] appears, read: Sa23, antibiotic susceptible S. aureus ATCC 25923, n = 3, read-out: MIC.
Setting [22] is: Sa91, methicillin-resistant S. aureus ATCC 33591, n = 3, read-out: MIC.
The mark [23] stands for this setting: Sa92, methicillin-resistant S. aureus ATCC 33592, n = 3, read-out: MIC.
[24] abbreviates: Sa99, methicillin-resistant S. aureus ATCC 700699, n = 3, read-out: MIC.
Where [25] appears, read: Sa12, methicillin-resistant S. aureus BAA-2312, n = 3, read-out: MIC.
[26] abbreviates: Se, S. epidermidis ATCC 700296, n = 3, read-out: MIC.

Molecules are shown by their SMILES. Values after ≈ are worked out from the molar mass of the structure shown. Read-outs that look alike come from different tables or passages of the source.

Usually MIC stands for the least concentration at which growth counts as inhibited. With `O=C(O)c1ccc(-n2cc(CNc3ccc(Br)c(Cl)c3)c(-c3cc(C(F)(F)F)cc(C(F)(F)F)c3)n2)cc1` [Compound 21, 4-[3-[3,5-Bis(trifluoromethyl)phenyl]-4-[(4-bromo-3-chloro-anilino)methyl]pyrazol-1-yl] benzoic acid], the MIC in assay [1] (setting [17]) was 1 µg/mL (≈ 1.62 µM); in assay [2] (setting [18]), 1 µg/mL (≈ 1.62 µM); in assay [3] (setting [19]), 1 µg/mL (≈ 1.62 µM); in assay [4] (setting [20]) it was 1 µg/mL (≈ 1.62 µM); in [5] (setting [21]) it was 1 µg/mL (≈ 1.62 µM); in assay [6] (setting [22]) it was 0.5 µg/mL (≈ 0.808 µM). Moreover, the MIC is 0.5 µg/mL (≈ 0.808 µM) in [7] (setting [23]); 2 µg/mL (≈ 3.23 µM) in assay [8] (setting [24]); 1 µg/mL (≈ 1.62 µM) in [9] (setting [25]); 2 µg/mL (≈ 3.23 µM) in assay [10] (setting [26]); no less than 0.5 µg/mL in assay [11] (Staphylococcus aureus, S. aureus strains, including MRSA); 1 µg/mL (≈ 1.62 µM) in assay [12]. The “times more effective than vancomycin and daptomycin” value in [11] (against S. aureus strains) was “up to 4 times”.
For the compound `CCCCCCCCCC(=O)N[C@@H](Cc1c[nH]c2ccccc12)C(=O)N[C@H](CC(N)=O)C(=O)N[C@@H](CC(=O)O)C(=O)N[C@@H]1C(=O)NCC(=O)N[C@@H](CCCN)C(=O)N[C@@H](CC(=O)O)C(=O)N[C@H](C)C(=O)N[C@@H](CC(=O)O)C(=O)NCC(=O)N[C@H](CO)C(=O)N[C@@H]([C@H](C)CC(=O)O)C(=O)N[C@@H](CC(=O)c2ccccc2N)C(=O)O[C@@H]1C` [D, Daptomycin, reference compound], the MIC in [1] (setting [17]) came out at 2 µg/mL (≈ 1.23 µM); in assay [2] (setting [18]) it was 16 µg/mL (≈ 9.87 µM); in assay [3] (setting [19]) it was 16 µg/mL (≈ 9.87 µM); in assay [4] (setting [20]) it was 16 µg/mL (≈ 9.87 µM); in assay [5] (setting [21]), 2 µg/mL (≈ 1.23 µM); in assay [6] (setting [22]) it was 2 µg/mL (≈ 1.23 µM). The minimal inhibitory concentration (MIC) in assay [7] (setting [23]) turned out to be 2 µg/mL (≈ 1.23 µM); in assay [8] (setting [24]), 8 µg/mL (≈ 4.94 µM); in assay [9] (setting [25]) it was 2 µg/mL (≈ 1.23 µM); in assay [10] (setting [26]), 2 µg/mL (≈ 1.23 µM). Further, the MBEC in assay [13] and in [14] was greater than 32 µg/mL throughout. In addition, the “time to eliminate >99.9% CFUs” value in assay [15] is 6 h. Besides, the “activity against persisters” value in assay [16] is reported as “failed to demonstrate persister kill activity”.
Turning to `CN[C@H](CC(C)C)C(=O)N[C@H]1C(=O)N[C@@H](CC(N)=O)C(=O)N[C@H]2C(=O)N[C@H]3C(=O)N[C@H](C(=O)N[C@H](C(=O)O)c4cc(O)cc(O)c4-c4cc3ccc4O)[C@H](O)c3ccc(c(Cl)c3)Oc3cc2cc(c3O[C@@H]2O[C@H](CO)[C@@H](O)[C@H](O)[C@H]2O[C@H]2C[C@](C)(N)[C@H](O)[C@H](C)O2)Oc2ccc(cc2Cl)[C@H]1O` [V, Vancomycin, reference compound], the MIC in [1] (Bacillus subtilis) was 0.25 µg/mL (≈ 0.173 µM); in assay [2] it was 2 µg/mL (≈ 1.38 µM); in [3], greater than 32 µg/mL; in assay [4] it was greater than 32 µg/mL; in assay [5], 1 µg/mL (≈ 0.69 µM); in [6] it was 2 µg/mL (≈ 1.38 µM). Further, the MIC came out at 2 µg/mL (≈ 1.38 µM) in [7], 4 µg/mL (≈ 2.76 µM) in assay [8], 0.5 µg/mL (≈ 0.345 µM) in [9] and 2 µg/mL (≈ 1.38 µM) in [10]. Besides, the MBEC in [13] and in [14] was greater than 32 µg/mL each time. Besides, the “time to eliminate >99.9% CFUs” value in [15] is on record as 8 h. Moreover, the “activity against persisters” value in [16] is given as “failed to demonstrate persister kill activity”.

The values above are taken from paper PMC8398255, “Synthesis of 3,5-Bis(trifluoromethyl)phenyl-Substituted Pyrazole Derivatives as Potent Growth Inhibitors of Drug-Resistant Bacteria” (Molecules, 2021).
